From patent US6335337B1, “Substituted piperazinones and their therapeutic uses” (Laboratoire L. Lafon, priority 1998, dated 2002) come the findings set out here.

Where a name gives a salt, the structure may show the parent alone.

For one assay, the system named is Human Platelets. The assay can be described thus: In vitro inhibition of collagen-induced platelet aggregation, human platelet-rich plasma. The class given is cell-based. The settings on record: 0.05 h, human PRP, collagen 5 μg/ml, 3 minutes of contact at 37° C., read-out: IC50(M) in vitro Man. As for the experimental part:
A study of the inhibitory activity of the compounds of formula (I) on platelet aggregation was carried out in vitro, i.e. by direct contact of solutions of variable concentrations of the compounds with platelets freshly separated from a sample of total blood, taken under standardized conditions, from laboratory animals (guinea pigs) and from healthy human subjects who have not received any substances or drugs that might interfere with blood clotting. The anti-platelet-aggregating activity was also studied ex vivo/vitro, i.e. after administration of the substances claimed to guinea pigs to measure the intensity and duration of the anti-aggregating action induced by the fraction of the test product absorbed and circulating in the blood. Venous blood is taken from a group of ten healthy human subjects of the same age, by puncture into a vein of the fold of the elbow and is collected in a glass tube containing aqueous 0.129 M sodium citrate solution (1 volume of citrate solution per 9 volumes of blood). Each tube is then centrifuged a first time at 20° C. and 100 g for 15 minutes in order to obtain the platelet-rich plasma (PRP); after removing this PRP, the tube is again centrifuged at 2000 g for 15 minutes in order this time to remove the platelet-poor plasma (PPP). For each identified sample of PRP, the platelets are counted using a Coulter ZM counter. Each sample is then used to study the variation in inhibition of the platelet aggregation triggered by the addition of a Chromo-par-Reagent collagen glucose solution from Coultronics (used at a concentration of 5 μg/ml) as a function of the addition of increasing concentrations of each compound in a range covering the interval 10^-8 M→10^-5 M, (example of concentrations: 10^-8 […]). Beforehand, for each compound, an aqueous 10^-3 M solution is prepared. A control test intended to check the possible effect of the solvents (reference value) on the platelet aggregation is introduced into each measurement series, and the aggregation is measured after 3 minutes of contact at 37° C. with agitation. From the percentages of inhibition of the platelet aggregation measured for each concentration of each compound, the 50%; inhibitory concentration (IC50) is calculated.

The subject of another assay is Guinea Pig Platelets. The assay can be described thus: In vitro inhibition of collagen-induced platelet aggregation, guinea pig platelet-rich plasma. Particulars: guinea pig PRP, collagen 1 μg/ml, 3 minutes of contact at 37° C. The assay is classed as cell-based. As for the experimental part: A study of the inhibitory activity of the compounds of formula (I) on platelet aggregation was carried out in vitro, i.e. by direct contact of solutions of variable concentrations of the compounds with platelets freshly separated from a sample of total blood, taken under standardized conditions, from laboratory animals (guinea pigs) and from healthy human subjects who have not received any substances or drugs that might interfere with blood clotting. The anti-platelet-aggregating activity was also studied ex vivo/vitro, i.e. after administration of the substances claimed to guinea pigs to measure the intensity and duration of the anti-aggregating action induced by the fraction of the test product absorbed and circulating in the blood.
Blood is taken by intracardiac puncture from male Dunkin-Hartley guinea pigs (weighing about 330 g), at a rate of 4.5 ml per 0.5 ml of trisodium citrate (concentration of the aqueous solution: 1.55%;) in order to prevent all trace of clotting. The platelet-rich plasma (PRP) is obtained by centrifuging the tubes of total blood for 15 minutes at 150 g.
The PRPs are collected as “pools”. The platelets contained in these pools are counted using a Coulter ZM haematology automatic device: if necessary, a dilution is carried out in order for the platelet concentration in the plasma to be between 200000 and 400000 platelets/mm^3. Simultaneously, other samples of these pools serve to prepare the platelet-poor plasma (PPP) by centrifugation at 1500 g for 15 minutes.
The kinetic study of the platelet aggregation is carried out by adding a collagen solution (1 μg/ml) to a volume of PRP, using a Chrono-log Corporation aggregometer (490-D1, or 560 VS) which uses an optical detection of the appearance of the thrombus.
The determination of the 50%; inhibitory concentration (IC50) is carried out by adding a given volume of solvent (control reference) and increasing concentrations: 1.5×10^−8 M, 7×10^−8 M, 1.5×10^−7 M, 3×10^−7 M, 7×10^−7 M, 1.5×10^−6 M and […], of the compounds to samples of the pools of PRP. The measurements of the aggregation inhibition are carried out after 3 minutes of contact at 37° C. with agitation.

Where [1] appears, read: Cavia porcellus, Platelet, 0.05 h.

`CCOC(=O)[C@H](CNC(=O)CN1CCN(c2ccc(C(=N)N)cc2)CC1=O)NS(=O)(=O)c1ccc(C)cc1` [Example 23, Ethyl (2S)-3-{[2-(4-{4-[amino(imino)methyl]phenyl}-2-oxopiperazino)acetyl]amino}-2-{[4-toluenesulphonyl]amino}propanoate acetate]: the IC50 in the assay on Human Platelets was 1.8e-05 M; in the assay with Guinea Pig Platelets (setting [1]), 420 nM.
Compound `CCOC(=O)[C@H](CNC(=O)CN1CCN(c2ccc(C(=N)N3CCCCC3)cc2)CC1=O)NS(=O)(=O)c1ccc(C)cc1` [Example 41, Ethyl (2S)-3-{[2-(4-{4-[imino(piperidino)methyl]phenyl}-2-oxopiperazino)acetyl]amino}-2-{[4-toluenesulphonyl]amino}propanoate] gave an IC50 in the assay on Guinea Pig Platelets (setting [1]) of 1600 nM.
For the compound `CCOC(=O)[C@H](CNC(=O)CN1CCN(c2ccc(C(=N)N)cc2)CC1=O)NS(=O)(=O)c1ccc(Cl)cc1` [Example 24, Ethyl (2S)-3-{[2-(4-{4-[amino(imino)methyl]phenyl}-2-oxopiperazino)acetyl]amino}-2-{[(4-chlorophenyl)sulphonyl]amino}propanoate acetate], the results for the IC50 in the assay on Human Platelets and with Guinea Pig Platelets (setting [1]) were 9.3e-06 M and 320 nM, respectively.
Take `CCOC(=O)[C@H](CNC(=O)CN1CCN(c2ccc(C(=N)N)cc2)CC1=O)NS(=O)(=O)c1ccccc1` [Example 17, ethyl (2S)-3-{[2-(4-{4-[amino(imino)methyl]phenyl}-2-oxopiperazino)acetyl]amino}-2-[(phenylsulphonyl)amino]propanoate acetate]: the IC50 in the assay with Human Platelets was determined as 1e-05 M; with Guinea Pig Platelets (setting [1]), 110 nM.
For the compound `N=C(N)c1ccc(N2CCN(CC(=O)NC[C@H](NS(=O)(=O)c3ccccc3)C(=O)O)C(=O)C2)cc1` [Example 30, (2S)-3-{[2-(4-{4-[amino(imino)methyl]phenyl}-2-oxopiperazino)acetyl]amino}-2-[(phenylsulphonyl)amino]propanoic acid hydrochloride], the figures for the concentration for half-maximal inhibition (IC50) in the assay on Human Platelets and in the assay on Guinea Pig Platelets (setting [1]) were 1.2e-07 M and 94 nM, respectively.
On the same counts, the results for `CCOC(=O)[C@H](CNC(=O)CN1CCN(c2ccc(C(=N)N)cc2)CC1=O)NS(=O)(=O)c1cccnc1` [Example 18, Ethyl (2S)-3-{[2-(4-{4-[amino(imino)methyl]phenyl}-2-oxopiperazino)acetyl]amino}-2-[(3-pyridylsulphonyl)amino]propanoate diacetate] are 3.2e-05 M and 910 nM.
On the same counts, the results for `CCOC(=O)[C@H](CNC(=O)CN1CCN(c2ccc(C(=N)N)cc2)C(=O)C1)NS(=O)(=O)c1ccccc1` [Example 29, Ethyl (2S)-3-{[2-(4-{4-[amino(imino)methyl]phenyl}-3-oxopiperazino)acetyl]amino}-2-[(phenylsulphonyl)amino]propanoate acetate] are 5.3e-06 M and 1800 nM.
In the same order, the values of `Cc1ccc(S(=O)(=O)N[C@@H](CNC(=O)CN2CCN(c3ccc(C(=N)N)cc3)CC2=O)C(=O)O)cc1` [Example 31, (2S)-3-{[2-(4-{4-[Amino(imino)methyl]phenyl}-2-oxopiperazino)acetyl]amino}-2-{[4-toluenesulphonyl]amino}propanoic acid hydrochloride] are 3.4e-07 M and 310 nM.
In the case of `CCOC(=O)[C@H](CNC(=O)CN1CCN(c2ccc(C(=N)N)cc2)CC1=O)NS(=O)(=O)c1cccc2c1NCCC2` [Example 19, Ethyl (2S)-3-{[2-(4-{4-[amino(imino)methyl]phenyl}-2-oxopiperazino)acetyl]amino}-2-[(1,2,3,4-tetrahydro-8-quinolinylsulphonyl)amino]propanoate acetate], the IC50 was 8.2e-06 M in the assay on Human Platelets and 250 nM with Guinea Pig Platelets (setting [1]).
For the compound `CCOC(=O)[C@H](CNC(=O)CN1CCN(c2ccc(C(=N)N)cc2)CC1=O)NS(=O)(=O)c1ccc2ccccc2c1` [Example 25, Ethyl (2S)-3-{[2-(4-{4-[amino(imino)methyl]phenyl}-2-oxopiperazino)acetyl]amino}-2-[(2-naphthylsulphonyl)amino]propanoate acetate], the IC50 with Human Platelets turned out to be 9.5e-05 M; in the assay on Guinea Pig Platelets (setting [1]) it was 200 nM.
In the case of `CCOC(=O)[C@H](CNC(=O)CN1CCN(c2ccc(C(=N)N)cc2)CC1=O)NC(=O)OCC(C)C` [Example 26, Ethyl (2S)-3-{[2-(4-{4-[amino(imino)methyl]phenyl}-2-oxopiperazino)acetyl]amino}-2-[(isobutoxycarbonyl)amino]propanoate acetate], the values for the IC50 in the assay with Human Platelets and in the assay on Guinea Pig Platelets (setting [1]) were 5.7e-06 M and 400 nM, respectively.
Regarding `CCOC(=O)[C@H](CNC(=O)CN1CCN(c2ccc(C(=N)N3CCOCC3)cc2)CC1=O)NS(=O)(=O)c1ccc(C)cc1` [Example 40], in the assay on Guinea Pig Platelets, the IC50 is 1000 nM.
